The values below come from publication PMC6037779, “Repurposing drugs to target the malaria parasite unfolding protein response” (Scientific Reports, 2018).

In one assay the test system is HCT-116. Kind of assay: Growth inhibition of human cell line. In kind it is cell-based. On the procedure:
(§1) Growth inhibition experiments were conducted at least three times per compound. […] The statistical analysis was performed with the software Prism 7 (GraphPad Software, San Diego, CA).

The next assay deals with T1, huGRP78-NBD (Homo sapiens, UniProt P11021).
T1 construct: PfGRP78-NBD wild type and mutant, and human GRP78-NBD were buffered in 25 mM hepes pH 7.5
T1 sequence (P11021 26-407 limits assumed): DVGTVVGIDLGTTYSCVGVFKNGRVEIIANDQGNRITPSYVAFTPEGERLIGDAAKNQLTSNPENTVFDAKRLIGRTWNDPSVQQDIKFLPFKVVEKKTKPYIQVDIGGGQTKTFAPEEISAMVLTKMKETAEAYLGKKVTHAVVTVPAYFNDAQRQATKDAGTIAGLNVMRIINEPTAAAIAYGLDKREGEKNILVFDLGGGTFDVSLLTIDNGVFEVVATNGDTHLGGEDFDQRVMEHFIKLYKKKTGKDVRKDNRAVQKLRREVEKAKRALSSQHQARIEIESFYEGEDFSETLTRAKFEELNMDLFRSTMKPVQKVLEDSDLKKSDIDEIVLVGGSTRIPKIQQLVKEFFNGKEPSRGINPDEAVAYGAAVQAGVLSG
The assay is described as follows: SPR (Biacore) binding to human GRP78-NBD. Conditions: ± standard error; calculated from kinetic constants; 25 °C; read-out: affinity constant (Kd) determined by SPR, huGRP78-NBD. On the procedure:
(§2) To quantify the binding affinities of PfGRP78-NBD for the selected compounds, dissociation constants (Kd) were determined by surface plasmon resonance (SPR). […] Purified PfGRP78-FL, PfGRP78-NBD wild-type and mutant, and human GRP78-NBD were immobilized on a CM5 sensorchip using NHS/EDC coupling following the manufacturer protocol to a level of <10,000 RUs, a reference surfaces without immobilized proteins served as a control for nonspecific binding and refractive index changes. […] The running buffer was 10 mM HEPES, pH 7.4, 150 mM NaCl, 0.005% P20, 1% DMSO and 2 mM MgCl2. Buffer only injections were used as blanks. The Biacore responses recorded during the 30 seconds of the injection were used to estimate the association constant (kon) and the 300 seconds after the injection were used to estimate the dissociation constant (koff). All dissociation and kinetic constants were estimated using double subtracted sensorgrams[40] using BiaEvaluation Software (GE Healthcare). All the reported parasite dissociation constants (Kd) were estimated with affinity analysis, and all the reported human Kds were calculated from kinetic constants.

The subject of another assay is Plasmodium falciparum W2. The assay is described as follows: In vitro growth inhibition assay (SYBR Green I), strain W2. Conditions: Plasmodium falciparum, W2; chloroquine-resistant strain; 72 hours; average of three ± SD; read-out: EC50, growth inhibition, P. falciparum W2. In kind it is cell-based. On the procedure: A major goal of our study was to evaluate the drug target potential of P. falciparum GRP78, thus we evaluated the effect of the chaperone inhibition on the malaria parasite. Our approach took advantage of several GRP78 inhibitors (Fig. 3a) previously characterized against human cancer cell lines, which were commercially available[20],[24]–[27]. These compounds were tested against two different parasite strains with opposite sensitivity towards the antimalarial drug chloroquine, 3D7 (sensitive) and W2 (resistant). […] A synchronized P. falciparum culture, with over 80% ring forms, was used in the growth inhibition assay. Each strain was assayed at 0.5% parasitaemia and 1.5% hematocrit. A 190 µL aliquot of parasite culture was dispensed per well to microplates that were pre-dispensed with the compounds at various dilutions. […] Dilutions of GRP78 inhibitors and DHA were prepared in water with a final concentration of DMSO below 0.05% (v/v). […] After incubation, the plates were subject to a freeze-thaw cycle (−80 °C) and the parasite growth was quantified by the SYBR Green I method as previously described. Briefly, 100 µl of homogenized parasite culture was transferred into 96-well black plates. 100 µl of SYBR Green lysis buffer (2x SYBR Green I, 100 mM Tris-HCl pH 7.5, 10 mM EDTA, 0.016% Saponin and 1.6% Triton X-100) were added to each well. The plates were incubated at room temperature in darkness for 1 hour.
as §1

Another assay deals with T2, PfGRP78-NBD wt (Plasmodium falciparum, UniProt Q05866).
T2 construct: His-tag (pET28-MHL, TEV site) (N, cleaved yes); made in house; host or cells: E. coli BL21(DE3)
T2 sequence (Q05866 26-404): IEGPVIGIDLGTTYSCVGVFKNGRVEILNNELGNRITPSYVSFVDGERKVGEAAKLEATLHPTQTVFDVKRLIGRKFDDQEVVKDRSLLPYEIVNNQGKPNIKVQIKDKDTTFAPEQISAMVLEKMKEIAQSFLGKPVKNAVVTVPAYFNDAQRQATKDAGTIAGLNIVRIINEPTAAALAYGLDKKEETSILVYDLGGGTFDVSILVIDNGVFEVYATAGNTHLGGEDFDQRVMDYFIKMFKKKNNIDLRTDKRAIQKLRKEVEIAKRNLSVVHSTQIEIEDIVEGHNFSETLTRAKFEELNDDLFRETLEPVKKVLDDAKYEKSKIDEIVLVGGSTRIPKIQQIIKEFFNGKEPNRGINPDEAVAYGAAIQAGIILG
The assay is described as follows: biochemical. It is filed as binding. On the procedure:
as §2

The target of a further assay is T3, PfGRP78-NBD Y39F (Plasmodium falciparum, UniProt Q05866, Y39F).
T3 construct: His-tag (pET28-MHL, TEV site) (N, cleaved yes); made in house; host or cells: E. coli BL21(DE3)
T3 sequence (Q05866 26-404 Y39F): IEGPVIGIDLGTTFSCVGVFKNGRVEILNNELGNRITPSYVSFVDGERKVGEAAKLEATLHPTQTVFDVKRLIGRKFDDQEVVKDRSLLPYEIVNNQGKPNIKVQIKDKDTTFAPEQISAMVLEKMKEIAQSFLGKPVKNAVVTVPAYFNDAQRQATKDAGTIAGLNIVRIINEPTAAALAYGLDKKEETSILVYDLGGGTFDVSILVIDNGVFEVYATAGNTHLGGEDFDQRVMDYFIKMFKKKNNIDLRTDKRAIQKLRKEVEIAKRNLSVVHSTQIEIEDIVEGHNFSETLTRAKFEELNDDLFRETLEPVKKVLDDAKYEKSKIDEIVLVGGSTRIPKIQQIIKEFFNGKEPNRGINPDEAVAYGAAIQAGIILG
Kind of assay: DSF thermal shift, PfGRP78-NBD Y39F mutant. It is filed as binding. On the procedure:
Initially, their binding was determined using a DSF (Differential Scanning Fluorimetry) assay. In this assay, an interaction between the chaperone and a compound was measured as a change in the protein’s melting temperature (Tm), by subtracting the Tm of the protein by itself to the melting value of the protein in the presence of the compound. Differences above or below 1 °C between the melting temperatures (ΔTm) were considered indicative of a protein-compound interaction.
DSF screening was carried out using a CFX96 Touch Real-Time PCR Detection System (BioRad, California). The PfGRP78-FL, PfGRP78-NBD wild type and mutant, and human GRP78-NBD were buffered in 25 mM hepes pH 7.5, 250 mM NaCl and assayed in a 96-well format. The final concentration of the protein sample was optimized between 0.05 and 0.2 mg/ml for each protein. The concentration was optimized for each protein to avoid saturation of the fluorescence detector. The GRP78 inhibitors were used at a final concentration of 0.5 mM. SYPRO Orange (Life Technologies, USA) was added as a fluorescence probe in a dilution of 1:1000.

By EC50 is commonly meant the midpoint of the concentration-response curve. The term Kd denotes the free concentration of one partner at which half of the binding sites on the other are occupied at equilibrium, for simple one-to-one binding.

Regarding `COc1ccc(-c2nc(-c3cc(C(F)(F)F)cc(C(F)(F)F)c3)n(Cc3ccc(C(N)=O)cc3)c2-c2ccc(OC)cc2)cc1` [Apoptozole], the EC50 came out at 16.5 ± 12.8 µM in the assay with HCT-116 (HCT-116, human cell line, average of three ± SD, read-out: EC50, growth inhibition, HCT-116) and 4.5 ± 0.4 µM in the assay on Plasmodium falciparum W2. In the assay on HCT-116 (HCT-116 vs P. falciparum EC50, Results text b30), the “times more selective towards P. falciparum” value is given as 2.9 times. For the same compound, the values for the Kd at huGRP78-NBD and on PfGRP78-NBD wt were 6.9 ± 0.33 µM and 4.27 ± 0.86 µM, respectively. Also, the “DSF binding to PfGRP78-NBD Y39F” value at PfGRP78-NBD Y39F was “failed to bind”.
